Measurements taken from patent publication US11787775B2, “Therapeutic compounds and methods of use” (priority 2020, dated 2023).
Read-outs that look alike come from different tables or passages of the source.

Assays:
Test in all cases: TEAD lipid pocket TR-FRET (Lipid HTRF) probe competition assay
Type in all cases: binding
TEAD1 = TEAD1 (Homo sapiens (Human), UniProt P28347)
Method: (§1) His-tagged TEAD proteins are pre-incubated with TEAD project compounds for 30 minutes or 4 hours at room temperature. Biotinylated lipid pocket probes are then added to the TEAD/Compound mixture and incubated for 60 minutes at room temperature. The lipid pocket probe competes with the test compound for the TEAD lipid pocket until equilibrium is reached. After 60 minutes, Europium labelled anti-His (Perkin Elmer #ADO 110) and XL665 labelled streptavidin (CIS Bio 610SAXAC) are added to the TEAD/test compound/lipid pocket mixture and incubated for 30 minutes or 4 hours. […] If a TEAD lipid pocket binder such as binds and displaces the lipid pocket probe, the disruption of the TEAD:probe interaction results in a decrease in TR-FRET signal. The potency of compounds as TEAD lipid pocket binders is determined by IC50 value generated using a non-linear 4 parameter curve fit.
(§2) Note that the “Compound Number” in Table 2 and Table 3 corresponds to the “Compound Number” in Table 1.

TEAD4 = TEAD4 (Homo sapiens (Human), UniProt Q15561)
TEAD4, sequence (Q15561 whole entry, species assumed): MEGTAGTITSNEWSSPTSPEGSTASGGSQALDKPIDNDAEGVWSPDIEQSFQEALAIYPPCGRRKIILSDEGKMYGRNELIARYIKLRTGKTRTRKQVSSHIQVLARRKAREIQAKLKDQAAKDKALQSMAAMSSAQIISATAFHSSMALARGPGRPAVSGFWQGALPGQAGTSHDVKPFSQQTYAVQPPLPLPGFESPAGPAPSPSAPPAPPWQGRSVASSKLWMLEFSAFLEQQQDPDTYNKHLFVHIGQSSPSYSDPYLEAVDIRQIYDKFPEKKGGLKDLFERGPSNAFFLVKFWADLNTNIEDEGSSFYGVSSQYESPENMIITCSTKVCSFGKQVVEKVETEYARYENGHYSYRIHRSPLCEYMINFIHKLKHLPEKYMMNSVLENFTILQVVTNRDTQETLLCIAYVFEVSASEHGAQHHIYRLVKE
Method: as §1, §2

TEAD3 = TEAD3 (Homo sapiens (Human), UniProt Q99594); details: 4 hours incubation with compound
TEAD3, sequence (Q99594 whole entry, species assumed): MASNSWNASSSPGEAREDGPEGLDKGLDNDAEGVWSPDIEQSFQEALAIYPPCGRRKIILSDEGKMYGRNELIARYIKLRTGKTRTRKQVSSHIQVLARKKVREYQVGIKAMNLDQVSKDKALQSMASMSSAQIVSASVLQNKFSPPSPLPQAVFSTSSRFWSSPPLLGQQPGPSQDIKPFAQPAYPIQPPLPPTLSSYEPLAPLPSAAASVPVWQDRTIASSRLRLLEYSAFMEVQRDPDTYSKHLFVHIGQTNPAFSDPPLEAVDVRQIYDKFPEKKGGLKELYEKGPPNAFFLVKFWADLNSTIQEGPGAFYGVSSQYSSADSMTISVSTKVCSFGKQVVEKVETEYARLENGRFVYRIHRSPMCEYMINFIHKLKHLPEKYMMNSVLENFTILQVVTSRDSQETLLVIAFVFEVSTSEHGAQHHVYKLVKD
Method: as §1, §2

TEAD2 = TEAD2 (Homo sapiens (Human), UniProt Q15562)
TEAD2, sequence (Q15562 whole entry): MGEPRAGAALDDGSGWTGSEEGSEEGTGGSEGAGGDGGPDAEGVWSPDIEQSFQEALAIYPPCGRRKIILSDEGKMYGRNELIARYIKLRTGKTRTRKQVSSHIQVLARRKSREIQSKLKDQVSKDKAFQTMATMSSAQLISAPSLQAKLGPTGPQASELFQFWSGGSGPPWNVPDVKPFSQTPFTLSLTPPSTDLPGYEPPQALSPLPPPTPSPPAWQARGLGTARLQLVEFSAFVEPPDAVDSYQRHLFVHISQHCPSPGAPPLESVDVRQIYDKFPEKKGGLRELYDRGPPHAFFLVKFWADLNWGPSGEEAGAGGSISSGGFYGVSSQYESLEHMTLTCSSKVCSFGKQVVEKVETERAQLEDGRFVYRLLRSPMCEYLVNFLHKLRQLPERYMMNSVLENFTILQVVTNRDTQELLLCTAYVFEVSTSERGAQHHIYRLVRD
Method: as §1, §2

[1] = 4 hours incubation with compound, read-out: Lipid HTRF TEAD1 IC50
[2] = 4 hours incubation with compound, read-out: Lipid HTRF TEAD4 IC50
[3] = 4 hours incubation with compound, read-out: Lipid HTRF TEAD2 IC50
[4] = Lipid HTRF TEAD4 IC50, 4 hours incubation with compound

TEAD1, sequence (P28347 whole entry, species assumed): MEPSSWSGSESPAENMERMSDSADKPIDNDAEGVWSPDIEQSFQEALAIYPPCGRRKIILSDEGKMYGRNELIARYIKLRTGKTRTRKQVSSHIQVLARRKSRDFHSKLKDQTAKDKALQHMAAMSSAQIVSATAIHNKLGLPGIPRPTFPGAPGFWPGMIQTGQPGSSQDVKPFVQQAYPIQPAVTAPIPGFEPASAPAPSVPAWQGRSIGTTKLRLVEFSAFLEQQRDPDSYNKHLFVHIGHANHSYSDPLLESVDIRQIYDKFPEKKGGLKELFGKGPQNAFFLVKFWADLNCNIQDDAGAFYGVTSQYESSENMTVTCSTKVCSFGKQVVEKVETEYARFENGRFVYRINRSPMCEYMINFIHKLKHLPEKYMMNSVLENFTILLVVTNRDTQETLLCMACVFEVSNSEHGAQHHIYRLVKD

Structure (SMILES) | IC50 (TEAD1; [1]) [nM] | IC50 (TEAD4; [2]) [nM] | IC50 (TEAD3) [nM] | IC50 (TEAD2; [3]) [nM] | IC50 (TEAD4; [4]) [nM] | IC50 (TEAD2; Lipid HTRF TEAD2 IC50, 4 hours incubation with compound) [nM] | IC50 (TEAD1; Lipid HTRF TEAD1 IC50, 4 hours incubation with compound) [nM]
C=C(CNc1cc(-c2ncc(C(C)C)s2)c2c(c1C#N)CCO2)C(=O)NO [Compound 27, 2-[[[4-cyano-7-(5-isopropylthiazol-2-yl)-2,3-dihydrobenzofuran-5-yl]amino]methyl]prop-2-enehydroxamic acid] | 310 | 170 | > 50000 | 110 |  |  | 
[2H]C1([2H])COc2c(-c3ccc(C(C)C)cc3)cc(NCC(=C)C(=O)NO)c(C#N)c21 [Compound 29, 2-[[[4-cyano-3,3-dideuterio-7-(4-isopropylphenyl)-2H-benzofuran-5-yl]amino]methyl]prop-2-enehydroxamic acid] | 60 | 40 | 430 | 10 |  |  | 
C=C(CNc1cc(-c2nc(C(C)C)cs2)c2c(c1C#N)CCO2)C(=O)NO [Compound 31, 2-[[[4-cyano-7-(4-isopropylthiazol-2-yl)-2,3-dihydrobenzofuran-5-yl]amino]methyl]prop-2-enehydroxamic acid] | > 50000 | 36000 | > 50000 | 860 |  |  | 
C=C(CNc1cc(-c2cc(C(C)C)cs2)c2c(c1C#N)CCO2)C(=O)O [Compound 32, 2-[[[4-cyano-7-(4-isopropyl-2-thienyl)-2,3-dihydrobenzofuran-5-yl]amino]methyl]prop-2-enoic acid] | 10 | 10 | 430 | 40 |  |  | 
[2H]C1([2H])COc2c(-c3ccc(C(C)C)cc3)cc(NCC(=C)C(N)=O)c(C#N)c21 [Compound 33, 2-[[[4-cyano-3,3-dideuterio-7-(4-isopropylphenyl)-2H-benzofuran-5-yl]amino]methyl]prop-2-enamide] | 180 |  | 1400 | 60 | 80 |  | 
C=C(CNc1cc(-c2ccc(OC(F)(F)F)cc2)c2c(c1CO)CCO2)C(N)=O [Compound 35, 2-[[[4-(hydroxymethyl)-7-[4-(trifluoromethoxy)phenyl]-2,3-dihydrobenzofuran-5-yl]amino]methyl]prop-2-enamide] | 160 | 250 | 1700 | 30 |  |  | 
C=C(CNc1cc(-n2ccc(C(C)C)n2)c2c(c1C#N)CCO2)C(=O)NO [Compound 36, 2-[[[4-cyano-7-(3-isopropylpyrazol-1-yl)-2,3-dihydrobenzofuran-5-yl]amino]methyl]prop-2-enehydroxamic acid] | > 50000 | > 50000 | > 50000 | 710 |  |  | 
[2H]C1([2H])Cc2c(C#N)c(NCC(=C)C(=O)NO)cc(-c3ccc(OC(F)(F)F)cc3)c2O1 [Compound 37, 2-[[[4-cyano-2,2-dideuterio-7-[4-(trifluoromethoxy)phenyl]-3H-benzofuran-5-yl]amino]methyl]prop-2-enehydroxamic acid] | 50 | 50 | 420 |  |  | 10 | 
C=C(CNc1cc(-c2ccc(S(F)(F)(F)(F)F)cc2)c2c(c1C#N)CCO2)C(=O)NO [Compound 38, 2-[[[4-cyano-7-[4-(pentafluoro-lambda6-sulfanyl)phenyl]-2,3-dihydrobenzofuran-5-yl]amino]methyl]prop-2-enehydroxamic acid] | 90 | 80 | 710 | 30 |  |  | 
C=C(CNc1cc(-c2ccc(OC(F)(F)F)cc2)c2c(c1C#N)CCO2)C(=O)NO [Compound 39, 2-[[[4-cyano-7-[4-(trifluoromethoxy)phenyl]-2,3-dihydrobenzofuran-5-yl]amino]methyl]prop-2-enehydroxamic acid] | 40 | 60 | 400 | 10 |  |  | 
[2H]C1([2H])COc2c(-c3ccc(C(C)C)cc3)cc(NCC(=C)C(=O)O)c(C#N)c21 [Compound 40, 2-[[[4-cyano-3,3-dideuterio-7-(4-isopropylphenyl)-2H-benzofuran-5-yl]amino]methyl]prop-2-enoic acid] |  |  | 680 | 40 | 20 |  | 20
C=C(CNc1cc(-c2ccc(OC(F)(F)F)cc2)c2ncsc2c1C#N)C(=O)NO [Compound 41, 2-[[[7-cyano-4-[4-(trifluoromethoxy)phenyl]-1,3-benzothiazol-6-yl]amino]methyl]prop-2-enehydroxamic acid] | 80 | 40 | 660 | 10 |  |  | 
C=C(CNc1cc(-c2ccc(OC(F)(F)F)cc2)c2c(c1C#N)CCO2)C(=O)N(C)O [Compound 43, 2-[[[4-cyano-7-[4-(trifluoromethoxy)phenyl]-2,3-dihydrobenzofuran-5-yl]amino]methyl]-N-hydroxy-N-methyl-prop-2-enamide] | 400 | 520 | 18000 | 1700 |  |  | 
C=C(CNc1cc(-c2ccc(OC(F)(F)F)cc2)c2c(c1C#N)CCO2)C(N)=O [Compound 44, 2-[[[4-cyano-7-[4-(trifluoromethoxy)phenyl]-2,3-dihydrobenzofuran-5-yl]amino]methyl]prop-2-enamide] | 110 | 140 | 1200 | 40 |  |  | 
C=C(CNc1cc(-c2ccc(S(F)(F)(F)(F)F)cc2)c2c(c1C#N)CCO2)C(=O)O [Compound 45, 2-[[[4-cyano-7-[4-(pentafluoro-lambda6-sulfanyl)phenyl]-2,3-dihydrobenzofuran-5-yl]amino]methyl]prop-2-enoic acid] | 30 | 80 | 920 | 170 |  |  | 
C=C(CNc1cc(-c2ccc(OC(F)(F)F)cc2)c2c(c1CO)CCO2)C(=O)NO [Compound 46, 2-[[[4-(hydroxymethyl)-7-[4-(trifluoromethoxy)phenyl]-2,3-dihydrobenzofuran-5-yl]amino]methyl]prop-2-enehydroxamic acid] | 50 | 60 | 440 | 10 |  |  | 
C=C(CNc1cc(-c2ccc(S(F)(F)(F)(F)F)cc2)c2c(c1C#N)CCO2)C(N)=O [Compound 48, 2-[[[4-cyano-7-[4-(pentafluoro-lambda6-sulfanyl)phenyl]-2,3-dihydrobenzofuran-5-yl]amino]methyl]prop-2-enamide] | 250 | 260 | 2600 | 220 |  |  | 
C=C(CNc1cc(-c2ncc(C(C)C)s2)c2c(c1C#N)CCO2)C(=O)O [Compound 49, 2-[[[4-cyano-7-(5-isopropylthiazol-2-yl)-2,3-dihydrobenzofuran-5-yl]amino]methyl]prop-2-enoic acid] | 310 | 90 | 2800 | 240 |  |  | 
C=C(CNc1cc(-c2ccc(S(F)(F)(F)(F)F)cc2)c2ncsc2c1C#N)C(=O)NO [Compound 51, 2-[[[7-cyano-4-[4-(pentafluoro-lambda6-sulfanyl)phenyl]-1,3-benzothiazol-6-yl]amino]methyl]prop-2-enehydroxamic acid] | 200 | 60 | 1200 | 30 |  |  | 
